The test system of one assay is p21cip1. Nature of the assay: p21cip1 expression Western blot, A10 cells. It counts as cell-based, rat. The settings on record: 10% FBS, 20 h, highest level at 120 μM. The procedure:
(§1) Protein from 5×10^4 cells was subjected to electrophoresis on 7.5-10% SDS-polyacrylamide gels and electro-transferred to nirocellulose membrane. Nonspecific binding was blocked by incubating with Tris-buffered saline (TBS) [137 mM NaCl, and 15 mM Tris-HCl (pH 7.6)] containing 5% non-fat milk (w/v) for 1 h at room temperature and then probed with primary antibody against p53, p21, p27, cyclin D1 and pRb overnight. After washing in TBS-Tween 20 buffer (0.075% v/v), the membranes were incubated with horseradish peroxidase-conjugated anti-IgG antibody. Proteins bound to the primary antibodies were detected with ECL detection reagents.
Cyclin-dependent kinase (cdk) inhibitors play important roles in cell cycle progression. P21cip1 is the main target of p53 medicated cell cycle inhibition. […] The effect of Avn on this CDK inhibitor p21cip1 protein expression was determined by Western blotting. A10 cells were synchronized by growning in FBS-free medium for 24 h. The cells were then stimulated with 10% FBS in the absence or presence of different concentrations of substantially purified Avn-C. After 20 h, total cell lysates were prepared and subjected to SDS-PAGE followed by Western blot analysis to detect p21cip and p27kip. β-Actin expression was used as loading control. […]
Background: In western blotting, separated proteins are transferred to a membrane and probed.

For assay [1], the system named is p53. The experiment in a line: Half life of p53 protein, cycloheximide chase, A10 cells. It counts as cell-based, rat. The procedure:
At 80% confluence, A10 cells seeded into 100 mm culture dishes and were treated with different concentrations of Av (0, 40, 80 and 120 μM) for 24 h. Following Avn treatment, the total cell extracts were harvested with 2× protein sample buffer [0.14 M Tris/HCl (pH 6.8), 22.4% glycerol, 6% SDS, 0.02% […], and 10% β-mercaptoethanol] by scraping the cells. The genomic DNA is sheared by passing through a 21-gauge syringe several times. The homogenized cell lysates were boiled for 5 min and centriftiged at 12,000 rpm for 5 min. Protein half life studies are performed as described before. Briefly, cells were treated with Avn for 4-6 h. […] Cells were harvested in 2× protein sample buffer at 0, 30, 60 and 120 min after cycloheximide addition. Protein samples were analyzed by Western blot.
P53 protein level is mainly regulated at a posttranslational level, usually via control of protein stability. To determine whether increased protein stability might play a role in the increased p53 levels induced by Avn treatment observed in this study, the change in half life of p53 protein in Avn-treated and nontreated cells was explored. […] Whole cell extract was prepared at different time points (0, 30 and 60 min.) and p53 protein levels were measured by Western blot. […]

For the next assay, the system named is cyclin D1. The experiment in a line: Cyclin D1 expression Western blot, FBS-stimulated A10 cells. The settings on record: 10% FBS, 20 h, dose-dependent. It counts as cell-based, rat. The procedure: as §1
Cells were treated with 10% FBS in the presence and absence of substantially purified Avn-C as described above. 20 h after the addition of serum to quiescent A10 cells, the amount of cyclin D1 was measured by Western blotting using polyclonal anti-cyclin D1 antibody. β-Actin expression level was used as a loading control.

Assay [2] concerns p53. Nature of the assay: p53 protein level Western blot, A10 cells. The class given is cell-based, rat. The procedure:
as §1
Induction of the tumor suppressor p53 has been implicated in the control of cell growth of SMC, and some antioxidants in green tea or red wine can increase the p53 protein expression level. Therefore, the effect of substantially purified Avn-C treatment on p53 protein levels was explored. A10 cells were seeded into 100 mm Petri dishes and grown in 10% FBS culture medium until 70% confluence. Cells were either left untreated or treated with different concentrations of Avn (0-120 uM), and the cells were harvested after 24 h. Whole cell lysates were prepared and subjected to Western blot analysis for p53 and β-actin levels.

The test system of the next assay is eNOS mRNA. The experiment in a line: eNOS mRNA expression level by real time PCR. It counts as cell-based, human. The procedure: Since NO is catalyzed by endothelium nitric oxide synthases (eNOS), the role of Avenanthramide in induction of eNOS expression level by real time PCR was examined. Total mRNA was extracted using RNesy Mini Kit (QIAGEN) and quantified spectrophotometrically at 260 nm. Twenty μl of first-strand cDNA was synthesized from 1.5 μg of total RNA by using 300 ng of random hexanucleotide primers and 200u of SuperScript II (Invitrogen) at 42 C. for 1 h followed by heat inactivation of reverse transcriptase at 70 C. for 15 min. Fifty μL of PCR reaction mixture contained 5 μL cDNA, up- and down-stream primers (200 nM) and 25 μL of SYBR Green was set up into the ABI 4400 to perform the amplification for 40 cycles with denaturation at 95 C. for 30 sec, annealing at 60 C. for 1 min and extension at 72 C. for 1 min. Primers designed based on the published gene sequences were synthesized from Tufts University Core Facility. The primer sequences used for eNOS were:
Beta-actin mRNA expression level as an internal control. […] The enhancing effect is dose-dependent and the pattern is consistent with the results from NO production (FIG. 3).
(In general: Real-time PCR tracks product formation cycle by cycle.)

Consider one compound from US20070254055A1, “Therapeutic Avenanthramide Compounds” (TRUSTEES OF TUFTS COLLEGE, priority 2003, published 2007).

For the compound `O=C(/C=C/c1ccc(O)c(O)c1)Nc1ccc(O)cc1C(=O)O` [Avn-C, Avenanthramide C], the p21 expression level entry in the assay on p21cip1 is recorded as “increased significantly”. In addition, in the assay on p53 [1] (80 uM for 6 h, then 15 μg/mL cycloheximide), the “p53 protein remaining after 1 h of cycloheximide treatment” value is on record as “More than half”. In the assay on p53 [1] (A10 cells (untreated about 20 min)), the “half-life of p53” value is reported as “more than 1 h”. Besides, the “FBS-induced cyclin D expression” value in the assay on cyclin D1 is listed as “attenuate”. Also, the “increase of p53 protein level” value in the assay with p53 [2] is recorded as “up to 3 fold”. Besides, the p53 protein levels result in the assay on p53 [2] (0-120 uM, 24 h) is “dose-dependent increase”. Moreover, the “increase of eNOS mRNA expression level” value with eNOS mRNA (80 μM, HASMC) was 3.5 fold. Moreover, in the assay with eNOS mRNA (Av. Con. 40 μM), the “Fold Change, eNOS mRNA expression level” value was found to be 1.56 and the “ΔCt eNOS-β-actin” value was determined as 7.0 ± 0.51. Further, in the assay on eNOS mRNA (Av. Con. 80 μM), the “Fold Change, eNOS mRNA expression level” value is given as 2.39 and the “ΔCt eNOS-β-actin” value stood at 6.41 ± 0.48.
